Columns and labels:
[1] = test system: Bacteroides uniformis; assay: Proliferation of Bacteroides uniformis in the intestinal tract, quantification PCR of feces (Example 1); format: in vivo, human; settings: about 200 mg α-cyclodextrin per day, oral tablets; 8w vs 0w; p<0.05
Method: As test subjects, 21 healthy males at the ages of 20 to 49 who have exercise habits of conducting exercise with an intensity of 5 METs or more for 30 minutes or more once or twice a week and who can continue the exercise habits during the test period as well were selected. Among the 21 test subjects, 10 test subjects were selected as an α-cyclodextrin (αCD) intake group, and the remaining 11 test subjects were selected as a placebo group. The test subjects themselves were not informed who belonged to which group. Test Supplements (tablets) having compositions described in Table 1 below were used. One tablet of the test supplements was of about 250 mg. […] The intake period for the test supplements was set to 9 weeks, and change in gut flora was evaluated, a questionnaire on fatigue feeling was conducted, and change in travel time was evaluated, before the start of the intake, after 4-week intake, and after 8-week intake. […] DNA was extracted from the collected feces by a conventional method, and the absolute number of Bacteroides uniformis in the intestinal tract was evaluated by conducting quantification PCR (probe method) with a conventional method using a forward primer, a reverse primer, and a probe targeting a sequence specific to the 16Sr DNA sequence region of Bacteroides uniformis with reference to the description of Anaerobe (2011), 17, 64-68, Jia Tong et al.

[2] = Exercise performance test, 10 km SPIN CYCLE travel time (Example 6); format: in vivo, human; settings: after 8-week intake, about 1000 mg/day; p<0.05
Method: As the test subjects, 86 healthy males at the ages of 20 to 49 who have exercise habits of conducting exercise with an intensity of 5 METs or more for 30 minutes or more once or twice a week and who can continue the exercise habits during the test period as well were selected.
Among the 86 test subjects, 43 test subjects were selected as an α-cyclodextrin (αCD) intake group, and the remaining 43 test subjects were selected as a placebo group. The test subjects themselves were not informed who belonged to which group.
Test Supplements (tablets) having compositions described in Table 4 below were used. One tablet of the test supplements was of about 600 mg.
Each test subject of the αCD intake group and the placebo group was asked to take in 4 tablets of the above test supplements once a day at any timing. That is, each test subject of the α-cyclodextrin intake group was asked to take in about 1000 mg of α-cyclodextrin per day.
The intake period for the test supplements was set to 8 weeks, and the heart rate during exercise was measured, before the start of the intake, after 4-week intake, and after 8-week intake to evaluate change in heart rate. In addition, a questionnaire on fatigue feeling was conducted before the start of the intake of the test supplements and after 8-week intake, and change in travel time was evaluated. […]

OC[C@H]1O[C@@H]2O[C@H]3[C@H](O)[C@@H](O)[C@@H](O[C@H]4[C@H](O)[C@@H](O)[C@@H](O[C@H]5[C@H](O)[C@@H](O)[C@@H](O[C@H]6[C@H](O)[C@@H](O)[C@@H](O[C@H]7[C@H](O)[C@@H](O)[C@@H](O[C@H]1[C@H](O)[C@H]2O)O[C@@H]7CO)O[C@@H]6CO)O[C@@H]5CO)O[C@@H]4CO)O[C@@H]3CO [α-cyclodextrin]
bacterial cell number of Bacteroides uniformis in the intestinal tract, after 8-week intake as compared with before intake [1]: about 2.5 times
travel time for 10 km, change vs before intake, compared with placebo group [2]: significantly less

— patent US20250176602A1, “Composition for Proliferation of Bacteroides uniformis in the Intestinal Tract” (Asahi Group Holdings, Ltd., priority 2019, published 2025)
